Assay results taken from patent US20240294535A1, “IMIDAZOTRIAZINE THIOBENZAMIDE DERIVATIVE, AND PREPARATION METHOD AND APPLICATION THEREOF” (Yunbaiyao Zhengwu Science and Technology (Shanghai) Co., …, priority 2023, published 2024).

What was measured:
[1] = target: c-MET (Homo sapiens (Human), UniProt P08581); experiment: c-MET kinase inhibitory activity (ELISA, poly(Glu,Tyr) substrate); format: biochemical; settings: ATP 4 μM, 37° C. 1 h; read-out: c-MET kinase inhibitory enzymatic activity IC50
[2] = system: MKN-45 cells; experiment: Anti-proliferation activity, CTG, MKN-45 cells; format: cell-based; settings: Homo sapiens; MKN-45 cells, 48 h, CTG
Description: (§1) Experimental objective: To evaluate the anti-proliferation activities of the compounds against MKN-45 cells, EBC-1 cells, Hs746T cells and Vero cells.
(§2) Experimental methods: Tumor cell lines were cultured and periodically passaged, and cells in logarithmic growth phase were taken for plate spreading. The cells were stained with Trypan blue, counted and adjusted to an appropriate density. 50 μL of cell suspension was added into each well of a culture plate, and 50 μL of nutrient solution without cells was added into a blank control well. The culture plate was precultured for 24 h in an incubator under the condition of 37° C., 5% CO2 and 100% relative humidity.
(§3) The DMSO stock solutions of the compounds 1-28 and Capmatinib were prepared, and diluted with Tecan D300e. Each compound was diluted to 7 concentration levels: 0.50 μM, 0.125 μM, 0.031 μM, 0.0078 μM, 0.0020 μM, 0.00049 μM, 0.00012 μM. The experiment was carried out in triplicate.
(§4) 50 μL of the solution was added into each designated well, and the culture plate was incubated for 48 h. 50 μL of CTG working solution was added to each well. The culture plate was wrapped with aluminum foil to avoid light and shaken in the shaker for 2 min to induce cell lysis. The culture plate was placed at room temperature for 10 min to stabilize light-emitting signal which was detected with a 2014 EnVision plate reader. Experimental data was processed by GraphPad Prism 7 to calculate IC50.

[3] = system: EBC-1 cells; experiment: Anti-proliferation activity, CTG, EBC-1 cells; format: cell-based, human; settings: Homo sapiens; EBC-1 cells, 48 h, CTG
Description: as §1, §2, §3, §4

[4] = system: Hs746T cells; experiment: Anti-proliferation activity, CTG, Hs746T cells; format: cell-based; settings: Homo sapiens; Hs746T cells, 48 h, CTG
Description: as §1, §2, §3, §4

[5] = system: Vero cells; experiment: Anti-proliferation activity, CTG, Vero cells; format: cell-based; settings: Chlorocebus sabaeus; Vero cells, 48 h, CTG
Description: as §1, §2, §3, §4

[6] = system: human EBC-1 cell subcutaneous xenograft model; experiment: In vivo anti-tumor assessment in EBC-1 cell xenograft tumor mouse model; design: species or system mice; settings: 10 mg/kg P.O. QD × 15 days
Description: Experimental objective: To investigate in vivo efficacy of representative compounds on human lung squamous carcinoma cell (human EBC-1 cell) subcutaneous xenograft model.
Experimental methods: The EBC-1 cell xenograft tumor mouse model was used, according to the diameters of tumor, the tumor volume (TV), relative tumor volume (RTV), relative tumor proliferation rate (T/C (%)) and tumor growth inhibition value (TGI (%)) were calculated.
TGI (%) or T/C (%) of the compounds was evaluated. TGI (%) reflects a tumor growth inhibitory rate. TGI (%) was calculated as follows: TGI (%)=[1−(average tumor volume at the end of administration in a treatment group-average tumor volume at the beginning of administration in the treatment group)/(average tumor volume at the end in a solvent control group-average tumor volume at the beginning in the solvent control group)]×100%.
T/C (%) was calculated as follows: T/C (%)=TRTV/CRTV×100%; where TRTV is treatment RTV, and CRTV is negative control RTV. According to the measurement results of the tumor, RTV was calculated, and the calculating formula for RTV is as follows: RTV=Vt/V0; where V0 is the average tumor volume measured on the day of first administration; and Vt is the average tumor volume measured on a specified day. TRTV and CRTV were measured on the same day.

[7] = in vivo; settings: both, Kunming, mouse, po

c-MET, sequence (P08581 25-1390): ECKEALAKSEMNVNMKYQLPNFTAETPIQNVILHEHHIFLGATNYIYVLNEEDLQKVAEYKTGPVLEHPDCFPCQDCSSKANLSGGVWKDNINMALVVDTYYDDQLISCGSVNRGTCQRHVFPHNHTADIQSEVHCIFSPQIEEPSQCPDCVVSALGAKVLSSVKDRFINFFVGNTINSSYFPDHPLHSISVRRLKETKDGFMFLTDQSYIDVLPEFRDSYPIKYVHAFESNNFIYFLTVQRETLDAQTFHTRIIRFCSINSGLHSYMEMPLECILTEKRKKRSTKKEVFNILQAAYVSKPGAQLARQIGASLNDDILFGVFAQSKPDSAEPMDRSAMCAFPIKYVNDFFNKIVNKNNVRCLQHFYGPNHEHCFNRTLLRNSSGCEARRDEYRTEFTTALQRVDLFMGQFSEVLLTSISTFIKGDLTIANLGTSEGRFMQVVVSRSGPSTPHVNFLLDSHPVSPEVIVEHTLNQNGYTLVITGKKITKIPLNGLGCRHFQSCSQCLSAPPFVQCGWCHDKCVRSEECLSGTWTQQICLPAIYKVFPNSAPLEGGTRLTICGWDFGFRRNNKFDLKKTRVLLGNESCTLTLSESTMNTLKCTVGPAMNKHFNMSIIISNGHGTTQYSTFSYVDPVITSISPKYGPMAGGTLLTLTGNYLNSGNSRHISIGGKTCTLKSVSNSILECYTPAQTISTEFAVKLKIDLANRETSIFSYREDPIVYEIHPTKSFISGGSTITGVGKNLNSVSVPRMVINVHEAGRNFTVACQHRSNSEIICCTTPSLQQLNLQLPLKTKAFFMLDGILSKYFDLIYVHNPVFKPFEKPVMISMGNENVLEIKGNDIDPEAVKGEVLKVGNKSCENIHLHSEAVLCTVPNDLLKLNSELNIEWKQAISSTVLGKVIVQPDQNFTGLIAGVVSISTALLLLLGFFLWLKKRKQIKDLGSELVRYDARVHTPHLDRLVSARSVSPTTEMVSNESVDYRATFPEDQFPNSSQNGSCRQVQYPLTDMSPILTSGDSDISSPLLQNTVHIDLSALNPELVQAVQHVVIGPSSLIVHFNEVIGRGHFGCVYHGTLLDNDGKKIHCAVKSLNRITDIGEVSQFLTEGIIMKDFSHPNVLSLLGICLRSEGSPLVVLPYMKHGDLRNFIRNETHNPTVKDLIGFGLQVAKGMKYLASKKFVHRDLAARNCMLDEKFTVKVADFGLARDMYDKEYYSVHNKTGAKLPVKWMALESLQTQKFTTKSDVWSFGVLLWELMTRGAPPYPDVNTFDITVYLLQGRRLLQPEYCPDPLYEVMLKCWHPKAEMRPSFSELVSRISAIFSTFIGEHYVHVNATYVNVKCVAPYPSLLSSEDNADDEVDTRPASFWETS

Compound `CNC(=S)c1ccc(-c2cnc3ncc(Cc4ccc5nccnc5c4)n3n2)cc1F` [Compound 17] has an IC50 [1] of 0.0016 nM, an IC50 [2] of 1.2 nM and an IC50 [3] of 1.6 nM. For the same compound, the IC50 [4] was 1.2 nM, the IC50 [5] was 123 nM and the “T/C(%)” value [6] was 20.42%. The “TGI(%)” value [6] was 96.76%, the “Tumor Volume (Day 15)” value ([6]; Day 15) was 184 ± 27 mm^3 and the “inhibition of growth of the tumor in mice (tumor volume change)” value ([6]; end of the experiment, FIG. 2) was “better inhibitory effects”. For the same compound, the LD50 [7] was 318 mg/kg.
